We go through 5 compounds from ChEMBL document CHEMBL1781994, “Estrogenic activity of chemical constituents from Tephrosia candida” (J Nat Prod, 2011).

In assay [1] the target is T1, Estrogen receptor (Homo sapiens) (UniProt P03372).
T1 sequence (whole entry): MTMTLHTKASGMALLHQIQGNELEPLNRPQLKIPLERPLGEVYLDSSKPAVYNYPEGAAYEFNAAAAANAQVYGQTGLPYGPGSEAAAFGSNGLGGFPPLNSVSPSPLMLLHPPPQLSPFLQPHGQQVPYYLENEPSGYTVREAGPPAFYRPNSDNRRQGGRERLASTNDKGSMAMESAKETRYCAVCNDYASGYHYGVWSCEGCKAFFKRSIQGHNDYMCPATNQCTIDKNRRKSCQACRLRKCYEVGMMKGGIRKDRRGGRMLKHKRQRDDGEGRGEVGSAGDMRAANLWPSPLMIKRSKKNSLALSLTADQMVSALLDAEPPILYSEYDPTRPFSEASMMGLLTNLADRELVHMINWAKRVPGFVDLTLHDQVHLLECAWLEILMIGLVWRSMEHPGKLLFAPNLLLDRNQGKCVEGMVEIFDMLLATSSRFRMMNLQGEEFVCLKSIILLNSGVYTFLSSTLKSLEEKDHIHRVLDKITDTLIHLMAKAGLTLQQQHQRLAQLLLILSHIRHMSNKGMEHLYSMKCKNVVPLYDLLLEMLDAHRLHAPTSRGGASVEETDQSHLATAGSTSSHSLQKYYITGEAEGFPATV
Kind of assay: Inhibition of fluorescence-labeled 17beta-estradiol binding to ERalpha receptor at 5 mM after 2 hrs by fluorometric analysis.

The target of the next assay is T2, Estrogen receptor (Homo sapiens, UniProt P03372).
T2 sequence (P03372 whole entry): T1 sequence (whole entry)

pIC50: −log10 of the molar value. Where only a bound is given, the exact number is not on record here.

As usually defined, the inhibition is the drop in the measured response relative to a control, in per cent. A low value points to a response near the control. Broadly, the pIC50 is −log10 of the IC50, conventionally taken in molar units. In the case of `C=C1CC[C@@H](O)[C@]2(C)CC[C@@](O)(C(C)C)[C@H](O)[C@@H]12`, the inhibition in assay [1] turned out to be 67.3%. Besides, the pIC50 against Estrogen receptor is 2.55.

In assay [1], `COc1ccc2c(c1)OC[C@]1(O)c3cc4c(cc3O[C@H]21)OCO4` registered an inhibition of 36.2%. On Estrogen receptor, this compound gave a negative logarithm of the IC50 (pIC50) of less than 2.30.

Regarding `COc1cc(O)c(/C=C\C(C)(C)O)c(O)c1C(=O)/C=C/c1ccc(O)cc1` [CANDIDACHALCONE], the inhibition in assay [1] worked out at 95.1%. On Estrogen receptor, this compound showed a pIC50 of 4.10.

In the case of `COc1cc(O)c(/C=C\C(C)(C)O)c2c1C(=O)C[C@@H](c1ccccc1)O2` [TEPHROCANDIDIN A], in assay [1], the inhibition was 70.1%. This compound also had a negative-log IC50 (pIC50) at Estrogen receptor of 2.46.

In assay [1], `COc1cc(O)c(/C=C\C(C)(C)O)c2c1C(=O)CC(c1ccc(O)cc1)O2` (stereo not given) [TEPHROCANDIDIN B] yielded an inhibition of 86.2%. At Estrogen receptor, this compound had a negative-log IC50 (pIC50) of 3.00.
